{"source": "patent US20230255934A1", "about": "“NURR1 RECEPTOR MODULATORS AND USES THEREOF” (The Regents of the University of California, priority 2020, published 2023)", "key": {"RXRα LBD": {"molecular_target": "T1, RXRα LBD (Homo sapiens, UniProt P19793)", "T1 construct": "made in house", "T1 sequence (P19793 with tags, fused parts or gaps)": "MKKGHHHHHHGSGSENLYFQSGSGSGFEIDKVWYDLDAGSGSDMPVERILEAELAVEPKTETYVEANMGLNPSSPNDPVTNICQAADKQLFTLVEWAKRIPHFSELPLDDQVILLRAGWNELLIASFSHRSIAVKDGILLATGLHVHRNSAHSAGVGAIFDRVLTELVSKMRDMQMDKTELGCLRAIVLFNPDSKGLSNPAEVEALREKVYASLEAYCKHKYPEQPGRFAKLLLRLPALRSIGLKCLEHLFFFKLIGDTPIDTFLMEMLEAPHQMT", "test": "MST binding to RXRα LBD (specificity control)", "text": "The Nurr1 LBD protein, containing the N-terminal “LAP2” sequence that is recognized by a “coumarin ligase”, was expressed and purified using metal affinity and size-exclusion chromatography according to the previously reported protocol, except that the TEV cleavage step and reverse metal affinity chromatography were omitted.^1 The RXRα LBD protein, containing the N-terminal “LAP2” sequence, was expressed and purified identically to the Nurr1 LBD protein with minor modifications. Specifically, the elution of protein from Talon resin was performed by a step gradient of 10 CV each of 50 mM, 100 mM, 200 mM and 300 mM imidazole in 50 mM Tris-HCl buffer containing 300 mM NaCl at pH 7.8. Purity of protein in each fraction was analyzed by SDS PAGE and fractions eluted with 100-300 mM imidazole were pooled and concentrated. […]\nData were collected using the Monolith NT.115 System (Nanotemper), with settings for all samples at 40% excitation power and 40% MST power. The initial fluorescence was recorded for 3 sec and the thermophoresis fluorescence response was recorded for 20 sec. The data was inspected with Palmist software^5, and data points affected by initial fluorescence quenching or photobleaching were eliminated. The fluorescent response for each sample was normalized to the initial fluorescence using Palmist software to provide the values of thermophoresis (Fn). […]"}, "[1]": {"molecular_target": "T2, full-length Nurr1 (NBRE response element) (Mus musculus, UniProt Q06219)", "T2 construct": "a cell line derived from dopaminergic neurons which endogenously expresses full length Nurr1 and its target genes; endogenous in cells; host or cells: MN9D TET-ON cells", "T2 sequence (Q06219 whole entry)": "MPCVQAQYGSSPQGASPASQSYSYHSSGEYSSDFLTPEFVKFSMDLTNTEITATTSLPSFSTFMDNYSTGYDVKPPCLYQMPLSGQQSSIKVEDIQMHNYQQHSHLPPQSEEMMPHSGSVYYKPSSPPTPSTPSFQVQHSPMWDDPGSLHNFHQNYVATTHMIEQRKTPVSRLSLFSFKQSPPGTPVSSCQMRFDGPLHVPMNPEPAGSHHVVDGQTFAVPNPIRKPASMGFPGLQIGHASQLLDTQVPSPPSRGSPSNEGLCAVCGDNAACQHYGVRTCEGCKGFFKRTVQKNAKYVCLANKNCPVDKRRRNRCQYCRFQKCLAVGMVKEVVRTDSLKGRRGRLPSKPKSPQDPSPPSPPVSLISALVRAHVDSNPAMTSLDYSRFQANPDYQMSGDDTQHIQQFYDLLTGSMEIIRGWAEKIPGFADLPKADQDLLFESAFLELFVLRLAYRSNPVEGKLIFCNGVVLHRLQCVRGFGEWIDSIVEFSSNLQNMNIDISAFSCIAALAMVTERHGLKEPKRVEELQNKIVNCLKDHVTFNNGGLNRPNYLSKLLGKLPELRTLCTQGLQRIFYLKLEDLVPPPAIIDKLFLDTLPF", "test": "Full-length Nurr1 NBRE luciferase reporter assay in MN9D cells", "format": "cell-based", "conditions": "6 h treatment", "description": "Luciferase Reporter Assays. These assays were executed using standard protocols. MN9D TET-ON cells (P5) were grown for 60-72 h (see above) before being seeded at 1-10^5 cell/well in 24-well plate in DMEM/F12+5% TET-ON approved FBS 3 h before transfection. Cells were transfected using Lipofectamine 2000 (Invitrogen) and plasmid DNAs according to manufacturer's instructions. Lipofectamine/DNA complexes were prepared in Opti-Mem medium (Gibco) and incubated with cells overnight. The Nurr1-LBD_Gal4-DBD expressing plasmid was prepared by subcloning the Nurr1 LBD fragment into […] plasmid (Clontech) containing GAL4 DBD. The reporter plasmid pGL4.35 (luc2P/9XGAL4 UAS/Hygro) Vector (Promega) contains nine repeats of GAL4 UAS (Upstream Activator Sequence) and drives transcription of the luciferase reporter gene luc2P in response to binding of Nurr-LBD_Gal4-DBD chimeric protein. The pRL-null (Promega) plasmid expressing renilla luciferase was used as an internal control. […] Alternatively, cells were co-transfected with the reporter plasmid NBREx3-POMC-Luc containing three copies of the NBRE sequence ([NT] ID NO:23)) subcloned into the pXP1-luc plasmid containing the minimal (positions -34 to +63) POMC promoter as described previously^7, and the pRL-null plasmid. […] Transfected cells were treated with increasing concentrations of 5-chloroindole or vehicle only for 6 h, after which time the media was aspirated and luciferase activity was measured. Cells from each well were incubated for 15 min with 220 μL/well of Dual-Glo® Luciferase Reagent (Promega) at room temperature upon rotation on the orbital shaker. […] Resulting solutions were transferred to a white opaque 96-well plate (65 μL/well; 3 wells/sample) and firefly luciferase activity was measured using Veritas Microplate Luminometer (Turner BioSystems, Sunnyvale, Calif.). […] Renilla luciferase activity was measured after 20 min of incubation of the plate inside the luminometer. Experimental values are expressed as the average of firefly/renilla luciferase activity±standard deviation (for three independent biological replicates). […]"}}, "note": "“Also recorded” adds a separate entry of the source."}
{"smiles": "Clc1ccc2[nH]ccc2c1", "note": "[5-chloroindole]", "values": [{"measurement": "Binding to the RXRα LBD (in words)", "setting": "RXRα LBD", "value": "does not exhibit saturable binding"}, {"measurement": "Luciferase production, full-length Nurr1 NBRE reporter", "setting": "[1]", "value": "stimulates production of luciferase; also recorded: stimulates the activity of Nurr1"}]}
